# Test results reported in patent US20100048549A1, “Peptidomimetics selective for the somatostatin receptor subtypes 1 and/or 4” (priority 2005, published 2010).
# Where a name gives a salt, the structure may show the parent alone.
# Target: T1, human somatostatin receptor subtype sst4 (Homo sapiens, UniProt P31391)
# T1 construct: expressed in transfected cells; host or cells: CHO cells (membranes)
# Test: Competition binding with 125I-LTT-SRIF-28, CHO cell membranes, sst4
# Settings: bound only; read-out: Ki values for the sst4
# Protocol: (§1) The affinity of the compounds of the invention for the five human somatostatin receptor subtypes (sst1, sst2, sst3, sst4, and sst5) was determined in competition binding assays with (^125I-Tyr)-[Leu^8, DTrp^22]-Somatostatin-28 (^125I-LTT-SRIF-28). The biological material for these experiments consisted of membranes from Chinese hamster ovary (CHO) cells stably transfected with one of the five human somatostatin receptor subtypes. Membranes (3-20 μg of total protein per sample) and trace amount of ^125I-LTT-SRIF-28 were incubated in 10 mM Hepes, 1 mM EDTA, 5 mM MgCl2, 5 mg/ml of BSA and 30 μg/ml bacitracin, pH 7.6, with six concentrations of the compounds. Each concentration was run in duplicate. Nonspecific binding was defined by 1 μM somatostatin-14 (SRIF-14) and corresponded to 5-25% of total binding. After 60 min at room temperature, incubations were terminated by rapid vacuum filtration through GF/B glass fiber filter mats (presoaked at 4° C. in 200 ml of 10 mM Hepes, 1 mM EDTA, 5 mM MgCl2, pH 7.6) and three 5 ml washes with ice-cold wash buffer (20 mM TRIS, 1 mM EDTA, 5 mM MgCl2, pH 7.4). The filters were then dried, impregnated with scintillate and their radioactivity was measured by scintillation counting. The analysis of the experiments was carried out by nonlinear least square curve fitting. Affinity constants (Ki) were calculated from the IC50 values according to the Cheng-Prusoff's equation (Cheng and Prusoff, 1973). Experiments were repeated a minimum of three times.
# T1 sequence (P31391 whole entry): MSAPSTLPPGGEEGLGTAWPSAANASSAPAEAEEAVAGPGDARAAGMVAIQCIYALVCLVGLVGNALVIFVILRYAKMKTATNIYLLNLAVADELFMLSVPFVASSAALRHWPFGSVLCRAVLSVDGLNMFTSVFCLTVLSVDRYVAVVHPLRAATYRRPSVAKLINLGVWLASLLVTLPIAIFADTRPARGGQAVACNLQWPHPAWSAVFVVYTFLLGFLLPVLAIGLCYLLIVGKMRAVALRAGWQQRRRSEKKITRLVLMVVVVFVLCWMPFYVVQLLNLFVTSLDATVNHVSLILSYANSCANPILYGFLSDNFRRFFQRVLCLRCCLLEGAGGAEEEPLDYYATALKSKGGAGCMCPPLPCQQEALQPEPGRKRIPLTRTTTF
row,Ki,SMILES
1,< 300 nM,"CCOC[C@H](CCCN)NS(=O)(=O)c1ccc(C)c2ccccc12 [compound 76, (S)-4-methylnaphthalene-1-sulfonic acid (4-amino-1-ethoxymethylbutyl)amide]"
2,< 300 nM,"Cc1ccc(S(=O)(=O)N[C@@H](CCCN)COC(C)c2ccccc2)c2ccccc12 (stereo partly drawn) [compound 88, (S)-4-methyl-naphthalene-1-sulfonic acid [4-amino-1-(1-phenyl-ethoxy methyl)-butyl]-amide formic acid salt]"
3,< 300 nM,"Cc1ccc(S(=O)(=O)N[C@@H](CCCN)CNCc2ccccc2)c2ccccc12 [compound 35, (S)-4-methylnaphthalene-1-sulfonic acid [4-amino-1-(benzylaminomethyl)butyl]amide]"
4,< 300 nM,"Cc1ccc(S(=O)(=O)N[C@@H](CCCN)CSc2ccccc2)c2ccccc12 [compound 67, (S)-4-methylnaphthalene-1-sulfonic acid (4-amino-1-phenylsulfanylmethylbutyl)amide]"
5,< 300 nM,"Cc1ccc(COC[C@H](CCCN)NS(=O)(=O)c2ccc(C)c3ccccc23)cc1 [compound 12, (S)-4-methylnaphthalene-1-sulfonic acid [4-amino-1-(4-methylbenzyloxymethyl)butyl]amide]"
6,< 300 nM,"Cc1ccc(S(=O)(=O)N[C@@H](CCN)COc2ccccc2)c2ccccc12 [compound 100, (S)-4-Methylnaphthalene-1-sulfonic acid (3-amino-1-phenoxymethylpropyl)amide]"
7,< 300 nM,"Cc1ccc(S(=O)(=O)N[C@@H](CCCN)COCc2c(F)c(F)c(F)c(F)c2F)c2ccccc12 [compound 102, (S)-4-methylnaphthalene-1-sulfonic acid (4-amino-1-pentafluorophenylmethoxymethylbutyl)amide]"
8,< 300 nM,"Cc1ccc(S(=O)(=O)N[C@@H](CCCN)CSCc2ccccc2)c2ccccc12 [compound 1, (S)-4-methylnaphthalene-1-sulfonic acid (4-amino-1-benzylsulfanylmethylbutyl)amide]"
9,< 300 nM,"Cc1ccc(S(=O)(=O)N[C@@H](CCCN)CN(C)Cc2ccccc2)c2ccccc12 [compound 85, (S)-4-methylnaphthalene-1-sulfonic acid {4-amino-1-[(benzylmethylamino)methyl]butyl}amide]"
10,< 300 nM,"NCCC[C@@H](COCc1ccccc1)NS(=O)(=O)c1cccc2ccccc12 [compound 83, (S)-naphthalene-1-sulfonic acid (4-amino-1-benzyloxymethylbutyl)amide]"
11,< 300 nM,"Cc1ccc(S(=O)(=O)NC(CCCN)CNC2CCCCC2)c2ccccc12 (stereo not shown) [compound 77, 4-methylnaphthalene-1-sulfonic acid (4-amino-1-cyclohexylaminomethyl-butyl)-amide formic acid salt]"
12,< 300 nM,"Cc1ccc(S(=O)(=O)N[C@H](COCc2ccccc2)C(=O)NCCN)c2ccccc12 [compound 24, (R)-4-methylnaphthalene-1-sulfonic acid [1-(2-aminoethylcarbamoyl)-2-benzyloxyethyl]amide]"
13,< 300 nM,"Cc1ccc(S(=O)(=O)NC(CNCc2ccccc2)C2CCNCC2)c2ccccc12 (stereo not shown) [compound 34, 4-methylnaphthalene-1-sulfonic acid (2-benzylamino-1-piperidin-4-ylethyl)amide]"
14,< 300 nM,"Cc1ccc(S(=O)(=O)N[C@@H](CCN)COCc2ccccc2)c2ccccc12 [compound 3, (S)-4-methylnaphthalene-1-sulfonic acid (3-amino-1-benzyl-oxymethylpropyl)amide]"
15,< 300 nM,"Cc1ccc(S(=O)(=O)N[C@H](CSCc2ccccc2)C(=O)NCCN)c2ccccc12 [compound 31, (S)-4-methylnaphthalene-1-sulfonic acid [1-(2-aminoethylcarbamoyl)-2-benzylsulfanylethyl]amide]"
16,< 300 nM,"Cc1ccc(S(=O)(=O)N[C@H](CNc2ccccc2)Cc2c[nH]cn2)c2ccccc12 [compound 94, (S)-4-methylnaphthalene-1-sulfonic acid [2-(1H-imidazol-4-yl)-1-phenylaminomethylethyl]amide]"
17,< 300 nM,"Cc1ccc(S(=O)(=O)N[C@H](CNCc2ccccc2)Cc2c[nH]cn2)c2ccccc12 [compound 93, (S)-4-methylnaphthalene-1-sulfonic acid [1-(benzylaminomethyl)-2-(1H-imidazol-4-yl)ethyl]amide]"
18,< 300 nM,"Cc1ccc(S(=O)(=O)N[C@H](COc2ccccc2)Cc2c[nH]cn2)c2ccccc12 [compound 84, (S)-4-methylnaphthalene-1-sulfonic acid [2-(1H-imidazol-4-yl)-1-phenoxymethylethyl]amide]"
19,< 300 nM,"Cc1ccc(S(=O)(=O)N[C@@H](CCCN)COCc2ccc(F)cc2)c2ccccc12 [compound 101, (S)-4-methylnaphthalene-1-sulfonic acid [4-amino-1-(4-fluorobenzyloxymethyl)butyl]amide]"
20,< 300 nM,"Cc1ccc(S(=O)(=O)N[C@@H](C(=O)NCCN)[C@H](C)OCc2ccccc2)c2ccccc12 [compound 70, (R)-4-methylnaphthalene-1-sulfonic acid [2-benzyloxy-2-(S)methyl-1-(aminoethylcarbamoyl)-ethyl]amide]"
21,< 300 nM,"Cc1ccc(S(=O)(=O)N[C@@H](CCCN)COc2ccsc2)c2ccccc12 [compound 87, (S)-4-methylnaphthalene-1-sulfonic acid [4-amino-1-(thiophen-3-yloxymethyl)-butyl]-amide]"
22,< 300 nM,"NCCC[C@@H](COCc1ccccc1)NS(=O)(=O)c1ccc(F)c2ccccc12 [compound 78, (S)-4-fluoronaphthalene-1-sulfonic acid (4-amino-1-benzyloxymethylbutyl)amide]"

row,SMILES,Ki
1,"Cc1ccc(S(=O)(=O)N[C@@H](CCCN)COCC(C)C)c2ccccc12 [compound 80, (S)-4-methylnaphthalene-1-sulfonic acid (4-amino-1-isobutoxymethylbutyl)amide]",< 300 nM

# Target: T2, human somatostatin receptor subtype sst1 (Homo sapiens, UniProt P30872)
# T2 construct: expressed in transfected cells; host or cells: CHO cells (membranes)
# T2 sequence (P30872 whole entry): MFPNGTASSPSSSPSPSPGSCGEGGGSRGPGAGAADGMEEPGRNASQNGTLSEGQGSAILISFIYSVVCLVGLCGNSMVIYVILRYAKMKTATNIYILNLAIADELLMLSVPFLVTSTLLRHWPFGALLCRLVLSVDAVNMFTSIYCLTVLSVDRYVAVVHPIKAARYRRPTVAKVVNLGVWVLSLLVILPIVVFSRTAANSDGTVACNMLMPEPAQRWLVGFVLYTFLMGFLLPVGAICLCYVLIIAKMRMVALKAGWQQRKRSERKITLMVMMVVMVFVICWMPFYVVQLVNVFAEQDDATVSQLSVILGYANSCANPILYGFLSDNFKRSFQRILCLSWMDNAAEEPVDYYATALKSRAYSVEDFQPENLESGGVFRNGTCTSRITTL
# Test: Competition binding with 125I-LTT-SRIF-28, CHO cell membranes, sst1
# Settings: bound only; read-out: Ki values for the sst1
# Protocol: as §1
row,Ki,SMILES
1,< 300 nM,"Cc1ccc(S(=O)(=O)N[C@@H](CCCNC(C)C)CNC2CCCc3ccccc32)c2ccccc12 (stereo partly drawn) [compound 17, (S)-4-methylnaphthalene-1-sulfonic acid {4-isopropylamino-1-[(1,2,3,4-tetrahydronaphthalen-1-ylamino)methyl]butyl}amide]"
2,< 300 nM,"Cc1ccc(S(=O)(=O)N[C@@H](CCCNC(C)C)COc2ccc3cnccc3c2)c2ccccc12 [compound 105, (S)-4-methylnaphthalene-1-sulfonic acid [4-isopropylamino-1-(isoquinolin-6-yloxymethyl)butyl]amide]"
3,< 300 nM,"Cc1ccc(S(=O)(=O)N[C@@H](CCCNC(C)C)CSCc2ccccc2)c2ccccc12 [compound 61, (S)-4-methylnaphthalene-1-sulfonic acid (1-benzylsulfanylmethyl-4-isopropylaminobutyl)amide]"
4,< 300 nM,"Cc1ccc(S(=O)(=O)N[C@@H](C(=O)NCCNC(C)C)[C@H](C)OCc2ccccc2)c2ccccc12 [compound 71, (R)-4-methylnaphthalene-1-sulfonic acid [2-benzyloxy-2-(S)methyl-1-(2-isopropylaminoethylcarbamoyl)-ethyl]amide]"
5,< 300 nM,"CCC(CC)NCCC[C@@H](COc1ccccc1)NS(=O)(=O)c1ccc(C)c2ccccc12 [compound 14, (S)-4-methylnaphthalene-1-sulfonic acid [4-(1-ethylpropylamino)-1-phenoxymethylbutyl]amide]"
